#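 These data come from cells grown in 96-well plates and exposed to compound for 48 hours at five concentrations. At the GI50, growth is halved. TGI: concentration producing complete growth inhibition.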
# What was measured:
# Assay in all cases: NCI tumour cell line growth inhibition, 48 h
# A498 renal = system: A498 renal
# EKVX NSCLC = system: EKVX NSCLC
# HCT-15 colon = system: HCT-15 colon
# HOP-92 NSCLC = system: HOP-92 NSCLC
# MALME-3M melanoma = system: MALME-3M melanoma
# NCI-H226 lung = system: NCI-H226 lung
# SF-539 CNS = system: SF-539 CNS
# SK-MEL-5 melanoma = system: SK-MEL-5 melanoma
# SN12C renal = system: SN12C renal
# UACC-62 melanoma = system: UACC-62 melanoma
SMILES,GI50 (A498 renal) [µM],TGI (A498 renal) [µM],GI50 (EKVX NSCLC) [µM],TGI (EKVX NSCLC) [µM],GI50 (HCT-15 colon) [µM],TGI (HCT-15 colon) [µM],GI50 (HOP-92 NSCLC) [µM],TGI (HOP-92 NSCLC) [µM],GI50 (MALME-3M melanoma) [µM],TGI (MALME-3M melanoma) [µM],GI50 (NCI-H226 lung) [µM],TGI (NCI-H226 lung) [µM],GI50 (SF-539 CNS) [µM],TGI (SF-539 CNS) [µM],GI50 (SK-MEL-5 melanoma) [µM],TGI (SK-MEL-5 melanoma) [µM],GI50 (SN12C renal) [µM],TGI (SN12C renal) [µM],GI50 (UACC-62 melanoma) [µM],TGI (UACC-62 melanoma) [µM]
CC(=O)OC1CC2C3CCC4C[C@@H](NC(=O)C=C(C)C)CC[C@]4(C)C3CC[C@]2(C)[C@H]1C(C)N(C)C (some centres undefined),1.71,4.51,2.25,11.3,0.721,2.75,0.89,4.06,2.04,4.53,3.6,15,1.27,2.62,1.37,2.71,2.4,8,2.16,4.45
CC(=O)Oc1ccc(/C(=C(\C)c2ccc(Cl)cc2)c2ccc(OCCN3CCCCC3)cc2)cc1,3.62,15.2,2.15,6.32,1.61,3.19,1.64,4.42,1.96,3.91,6.39,22.9,1.84,3.57,1.69,3.07,1.69,3.52,1.86,3.73
O=C(Nc1n[nH]c2nnc(-c3cccnc3)cc12)C1CC1,0.051,0.17,> 20.9,> 25,> 20.3,> 25,> 25,> 25,> 25,> 25,2.7,> 13.9,2.79,> 20.8,4.61,> 25,> 11.7,> 25,7.37,> 25
O=c1oc2ccc(Br)cc2c(=O)n1-c1ccc(I)cc1F,0.15,0.377,0.594,5.73,0.4,5.96,0.164,0.492,0.32,1.27,0.66,3.36,0.403,4.04,0.246,0.642,0.33,2.79,0.264,0.886
OCCN1CCN2C=C(C3CCCC4N(CCO)CCN34)CCC21 (centres undefined),,> 100,,> 100,,> 100,,> 100,,> 100,,> 100,,> 92.2,,> 100,,> 100,,> 93.9
COc1ccc(C2C=C(c3ccc4c(c3)OCO4)Oc3c2c(=O)oc2ccccc32)cc1OC (centres undefined),,7.21,,> 100,,> 100,,> 73.1,,> 100,,9.6,,1.81,,> 100,,> 100,,> 100
CN(Cc1cc(Cl)cc(Cl)c1O)Cc1c(O)ccc2ccccc12,,31,,46.4,,38.9,,36.5,,28.9,,37.7,,38.5,,32,,43.7,,29.3
CN1CCN(C)C12C=CC=CC21CC1,,> 100,,> 100,,> 100,,> 100,,> 100,,> 100,,> 100,,> 100,,> 100,,> 100
Cn1c(NCC(O)CN2CCCC2)cc(=O)n(C)c1=O (centres undefined),> 100,> 100,> 100,> 100,> 100,> 100,> 100,> 100,> 100,> 100,> 100,> 100,> 100,> 100,> 100,> 100,> 100,> 100,> 100,> 100
CCCCCCCCCCCCCCCCC(=O)O.CCCCCCCCCCCCCCCCCC(=O)O.CCCCCCCCCCCCCCCCCC(=O)O.CCCCCCCCCCCCCCCCCC(=O)O.CCCCCCCCCCCCCCCCCC(=O)O.CO[CH-]OC12COC1CC(O)C1(C)C(O)C(OC(C)O)C3=C(C)C(OC(=O)C(O)C([NH-])c4ccccc4)CC(O)(C(OC(=O)c4ccccc4)C21)C3(C)C.[Cu+].[Zn].[Zn].[Zn].[Zn].[Zn] (centres undefined),< 0.0025,0.0187,0.112,9.22,0.222,> 25,0.858,12.8,0.00947,6.91,0.277,8.05,0.00598,0.0506,,3.57,0.0116,> 25,0.0118,5.47
CC(=O)N1N=C2/C(=C/c3ccc(Cl)cc3)CC(C)CC2C1c1ccc(Cl)cc1 (centres undefined),13,28.7,21.5,92.7,31.9,> 100,19.5,54,23.6,76.2,22,70.2,19.1,38,12.2,25,19.9,40.4,21.1,52.2
CCCCCCCCn1ccc2cc(NC(=O)Cn3cc(CN4CCCCC4)nn3)ccc21,5.05,19.5,2.89,13.9,1.96,4.11,0.601,2.21,1.58,3,8.65,27.7,1.81,3.26,1.77,3.16,1.8,3.75,1.81,3.51
CN1C/C=C/CCOc2cccc(c2)-c2ccnc(n2)Nc2cccc(c2)C1,0.0356,0.11,0.0501,0.666,0.036,3.18,0.0428,0.242,0.0469,0.179,0.0347,0.442,0.0338,0.155,0.0318,0.222,0.0442,2.73,0.0328,0.128
Clc1ccc(-c2c(C3=NCCCN3)nnn2-c2ccccc2)cc1,,> 100,,> 100,,> 100,,> 100,,> 100,,> 100,,> 100,,> 100,,> 100,,> 100
